{"source": "patent US9757402B2", "about": "“Method for measuring cell-to-cell transmission of α-synuclein aggregates using bimolecular fluorescence complementation system and method for screening a substance for preventing or treating neurodegenerative disease using the same” (KONKUK UNIVERSITY INDUSTRIAL COOPERATION CORP, priority 2014, dated 2017)", "format_in_all_cases": "in vivo, Caenorhabditis elegans", "key": {"[1]": {"test_system": "V1S+SV2 and daf-16(mu86); V1S+SV2 animals", "assay": "BiFC-positive inclusion body formation / aggregate transmission in C. elegans BiFC model with GlcNAc treatment", "procedure": "Pmyo-2::V1S and Pflp-21::SV2-ICR-DsRed plasmids were co-injected into the gonads of late L4-stage N2 worms with a selection marker, pRF4 which expresses a mutant collagen gene, rol-6(su1006) (Mello, C. C., et al. 1991. Efficient gene transfer in C. elegans: extrachromosomal maintenance and integration of transforming sequences. The EMBO J 10, 3959-3970), to prepare double transgenic line expressing the BiFC pair. As a negative control for BiFC, Pmyo-2::V1S alone was injected into N2 worms with pRF4, and Pflp-21::SV2-ICR-DsRed alone was injected into unc-119(ed3) mutant worms with a selection marker, pCFJ151, which expresses unc-119(+) gene (Frokjaer-Jensen, et al. 2008. Single-copy insertion of transgenes in Caenorhabditis elegans. Nat. Genet 40, 1375-1383). The plasmid Pmyo-2::V1 was prepared to express the BiFC partial sequence only by introducing the stop codon right before the α-synuclein coding sequence in Pmyo-2::V1S and was prepared using a QuickChange Site-Directed Mutagenesis Kit (Stratagene, La Jolla, Calif.). Pmyo-2::V1 and Pflp-21::SV2-ICR-DsRed plasmids were then co-injected into N2 with pRF4. In addition, Pflp-21::DsRed was injected into N2 with pRF4 as a control for the effects of general protein overexpression in neurons. For chromosomal integration of the introduced plasmids, injected lines were exposed to UV irradiation. […]"}, "[2]": {"test_system": "V1S+SV2 and daf-16(mu86); V1S+SV2 animals", "assay": "Nerve degeneration in C. elegans BiFC model with GlcNAc treatment", "settings": "10 mM GlcNAc, both V1S+SV2 and daf-16(mu86)", "procedure": "Worms were immobilized with 10 mM sodium azide in M9 buffer, mounted on 2% agar pads, and covered with a coverslip. Images of the worms were acquired using Olympus FV1000 confocal laser scanning microscopy (Olympus, Tokyo, Japan). N-acetylglucosamine (GlcNAc) (Sigma) was dissolved in distilled water to prepare 1 M as stock solution. The stock solution was diluted with LB liquid medium. The L4-stage worms of each transgenic line were transferred to NGM plates containing a final concentration of 10 mM GlcNAc. The present inventors then examined the degeneration of axonal processes from the URA motor neuron (Rogers et al., 2003). These nerves were intact in the wild-type N2 at day 8. Expression of SV2 in neurons caused neuritic bleb formation and nerve fragmentation in a small number of worms (FIGS. 23g, 23h, 23i, 23j, and 23k), indicating autonomous cellular toxicity of α-synuclein in neurons. These degenerative phenotypes were further exacerbated when […] was expressed in the pharyngeal muscle, and approximately 15% of nerves were completely lost (FIG. 23k). To verify nerve fragmentation, 3-D reconstruction of the stacked images of nerve processes was performed. […] Nerve degeneration worsened as the transgenic worms aged (FIG. 23j)."}, "[3]": {"test_system": "V1S+SV2 and daf-16(mu86); V1S+SV2 animals", "assay": "Pharyngeal pumping analysis with GlcNAc treatment", "settings": "10 mM GlcNAc, both V1S+SV2 and daf-16(mu86)", "procedure": "Pharyngeal pumping was counted for 1 min at RT using a fluorescence microscope. 25 worms from each strain were analyzed. The data were expressed as PPM (Pumps Per Minute). N-acetylglucosamine (GlcNAc) (Sigma) was dissolved in distilled water to prepare 1 M as stock solution. The stock solution was diluted with LB liquid medium. The L4-stage worms of each transgenic line were transferred to NGM plates containing a final concentration of 10 mM GlcNAc."}, "[4]": {"test_system": "V1S+SV2 and daf-16(mu86); V1S+SV2 animals", "assay": "Life span assay with GlcNAc treatment", "settings": "10 mM GlcNAc, both V1S+SV2 and daf-16(mu86)", "procedure": "Eggs laid by adult mother worms were synchronously grown up to the L4 larval stage on NGM plates seeded with E. coli OP50 at 20° C. The L4-stage worms were transferred to NGM plates containing 100 mM 5-fluoro-2′-deoxyuridine (Sigma) to prevent them from producing progeny. The number of worms that were alive or dead was recorded every 1-2 days.\n(§1) N-acetylglucosamine (GlcNAc) (Sigma) was dissolved in distilled water to prepare 1 M as stock solution. The stock solution was diluted with LB liquid medium. The L4-stage worms of each transgenic line were transferred to NGM plates containing a final concentration of 10 mM GlcNAc."}, "α-synuclein aggregates": {"test_system": "α-synuclein aggregates", "assay": "Dot blot and western blot of α-synuclein aggregates in transgenic worms", "procedure": "N-acetylglucosamine (GlcNAc) (Sigma) was dissolved in distilled water to prepare 1 M as stock solution. The stock solution was diluted with LB liquid medium. The L4-stage worms of each transgenic line were transferred to NGM plates containing a final concentration of 10 mM GlcNAc. Adult worms were washed with M9 buffer and subsequently with PBS containing 1% Triton X-100. The worm pellet was sonicated in PBS containing 1% Triton X-100, 1% (v/v) protease inhibitor cocktail (Sigma) and centrifuged to obtain the Triton-soluble (supernatant) and insoluble (pellet) fractions. Protein concentration was measured using the BCA protein assay kit (Pierce, Rockford, USA). Protein samples (3 μg for α-synuclein expression test and 50 μg to detect polyubiquitin proteins) were loaded onto 12% SDS-PAGE gels. The primary antibodies used for western blotting were monoclonal anti-α-synuclein antibody, 274 mAb and anti-ubiquitn antibody (ab7254; Abcam, Cambridge, Mass.). Chemiluminescence detection was performed using the LAS-3000 luminescence image analyzer, (Fujifilm, Tokyo, Japan), and Multi Gauge (y3.0) software. Adult worms of each strain were washed with M9 buffer and subsequently with PBS containing 1% Triton X-100. […] Chemiluminescence detection was performed using the LAS-3000 luminescence image analyzer and Multi Gauge (v3.0) software."}, "[5]": {"test_system": "polyubiquitinated proteins", "assay": "Steady state levels of polyubiquitinated proteins (western blotting) in transgenic worms", "settings": "transgenic animals treated with GlcNAc", "procedure": "N-acetylglucosamine (GlcNAc) (Sigma) was dissolved in distilled water to prepare 1 M as stock solution. The stock solution was diluted with LB liquid medium. The L4-stage worms of each transgenic line were transferred to NGM plates containing a final concentration of 10 mM GlcNAc. Adult worms were washed with M9 buffer and subsequently with PBS containing 1% Triton X-100. The worm pellet was sonicated in PBS containing 1% Triton X-100, 1% (v/v) protease inhibitor cocktail (Sigma) and centrifuged to obtain the Triton-soluble (supernatant) and insoluble (pellet) fractions. Protein concentration was measured using the BCA protein assay kit (Pierce, Rockford, USA). Protein samples (3 μg for α-synuclein expression test and 50 μg to detect polyubiquitin proteins) were loaded onto 12% SDS-PAGE gels. The primary antibodies used for western blotting were monoclonal anti-α-synuclein antibody, 274 mAb and anti-ubiquitn antibody (ab7254; Abcam, Cambridge, Mass.). Chemiluminescence detection was performed using the LAS-3000 luminescence image analyzer, (Fujifilm, Tokyo, Japan), and Multi Gauge (y3.0) software."}, "[6]": {"test_system": "lysosomal genes, sqst-1/p62", "assay": "Expression of lysosomal and autophagy genes (qPCR) upon GlcNAc treatment", "procedure": "as §1\nAdult transgenic worms derived from daf-16(mu86) mutants with or without hlh-30p::hlh-30 expression were collected, and washed in M9 buffer. The worms in the buffer were sonicated and the samples were subjected to several freeze-thaw cycles using liquid nitrogen. RNA was extracted with Trizol (Invitrogen, Carlsbad, Calif.) and purified using the RNeasy kit (Qiagen, Valencia, Calif., USA). Each cDNA was synthesized from 500 ng of total RNA using the iScript cDNA synthesis kit (Bio-Rad, Hercules, Calif.). For real-time PCR, target genes and specific primers were mixed with SYBR Premix Ex Taq II (Takara, Shiga, Japan) in 96-well plates. Specific primers previously designed by other group were used (Lapierre, L. R., et al. (2013). The TFEB orthologue HLH-30 regulates autophagy and modulates longevity in Caenorhabditis elegans. Nat. Commun 4, 2267). The DNA products were analyzed using the 7500 Real-Time PCR system (Applied Biosystems, Foster City, Calif.). […]"}, "[7]": {"test_system": "asp-4(ok2693); V1S+SV2 and asp-1(tm666); V1S+SV2 worms", "assay": "Epistasis analysis: GlcNAc treatment of cathepsin mutant BiFC worms", "settings": "asp-1 and asp-4 mutant transgenic animals, in contrast to V1S+SV2 worms", "from_the_text": "A plasmid expressing hlh-30p::hlh-30::gfp was obtained from Dr. Malene Hansen (Sanford-Burnham Medical Research Institute, CA, USA). The plasmid hlh-30p::hlh-30 was designed to introduce codon before the GFP coding sequence using a QuickChange Site-Directed Mutagenesis Kit to inhibit GFP expression. As a control, each Pmyo-2::V1S or Pflp 21::SV2-ICR-DsRed and hlh-30p::hlh-30 were co-injected into the gonads of late L4-stage N2 worm with pRF4. The plasmids expressing Pmyo-2::V1S, Pflp-21::SV2-ICR-DsRed and hlh-30p::hlh-30 were co-injected into the gonads of late L4-stage daf-16(mu86) mutant worms with pRF4. To analyze lysosomal dysfunction, asp-4(ok2693) and asp-1(tm666) mutant worms, in which the lysosomal enzyme cathepsin gene is inactivated, were used. Pmyo-2::V1S and Pflp-21::SV2-ICR-DsRed plasmids were co-injected into the gonads of late L4-stage mutant worms with pRF4. After transgenic lines containing the introduced plasmids were obtained, three representative lines of each genotype were used for experiments\nas §1"}, "[8]": {"test_system": "single tissue expression lines carrying V1S or SV2 alone in N2 and daf-16(mu86) mutant worms", "assay": "GlcNAc treatment of single tissue expression lines (V1S or SV2 alone)", "procedure": "Pmyo-2::V1S and Pflp-21::SV2-ICR-DsRed plasmids were co-injected into the gonads of late L4-stage daf-2(e1370) and daf-16(mu86) mutant worms with the pRF4. As a control for aging related BiFC models, Pmyo-2::V1S or Pflp-21::SV2::ICR::DsRed alone was injected into the gonads of late L4-stage of N2 and daf-16(mu86) mutant worms with pRF4. After several transgenic lines containing the introduced plasmids were obtained, three representative lines in each mutant background were used for experiments.\nWorms were immobilized with 10 mM sodium azide in M9 buffer, mounted on 2% agar pads, and covered with a coverslip. Images of the worms were acquired using Olympus FV1000 confocal laser scanning microscopy (Olympus, Tokyo, Japan).\nas §1\nAdult worms of each strain were washed with M9 buffer and subsequently with PBS containing 1% Triton X-100. The worm pellet was sonicated in PBS containing 1% Triton X-100, 1% (v/v) protease inhibitor cocktail. Protein samples (500 ng) were loaded onto nitrocellulose membranes, which were then dried and incubated in blocking solution. The primary antibodies used for dot blotting were the monoclonal anti-α-synuclein antibodies 274 mAb and Syn-O2, the latter of which is specific for aggregated α-synuclein. Chemiluminescence detection was performed using the LAS-3000 luminescence image analyzer and Multi Gauge (v3.0) software."}}, "data": [{"smiles": "CC(=O)N[C@H]1C(O)O[C@H](CO)[C@@H](O)[C@@H]1O", "note": "(stereo partly drawn) [GlcNAc, N-acetylglucosamine]", "values": [{"measurement": "formation of BiFC-positive inclusion bodies", "setting": "[1]; 10 mM GlcNAc from L4-stage, both V1S+SV2 and daf-16(mu86), V1S+SV2 animals", "value": "reduced"}, {"measurement": "transmission of α-synuclein aggregates", "setting": "[1]; BiFC experimental animal model", "value": "inhibiting"}, {"measurement": "phenotypes for nerve degeneration", "setting": "[2]", "value": "significantly alleviated"}, {"measurement": "pumping behavior", "setting": "[3]", "value": "significantly alleviated"}, {"measurement": "pumping behavior", "setting": "[3]; listed as N-acetylglucosamine", "value": "increased"}, {"measurement": "life span", "setting": "[4]", "value": "significantly alleviated"}, {"measurement": "life span", "setting": "[4]; listed as N-acetylglucosamine", "value": "extended"}, {"measurement": "levels of high molecular weight (HM) α-synuclein aggregates", "setting": "α-synuclein aggregates; Triton-insoluble (Tx-insol) fraction of transgenic worms, western blot", "value": "significantly decreased"}, {"measurement": "β-sheet-rich α-synuclein aggregates", "setting": "α-synuclein aggregates; dot blot with Syn-02 antibody, transgenic worms", "value": "reduced"}, {"measurement": "levels of polyubiquitinated proteins", "setting": "[5]", "value": "decreased"}, {"measurement": "expression of lysosomal genes and autophagy gene sqst-1/p62", "setting": "[6]", "value": "increased"}, {"measurement": "aging-related phenotypes", "setting": "[7]", "value": "not rescued"}, {"measurement": "pathogenic phenotypes (nerve degeneration, pumping behavior, life span)", "setting": "[8]; V1S or SV2 alone in N2 and daf-16(mu86), versus untreated animals", "value": "did not exhibit significant changes"}, {"measurement": "expression levels of α-synuclein", "setting": "[8]; dot blot, GlcNAc treatment", "value": "not changed"}, {"measurement": "neuronal expression of flp-21 promoter (Ds-Red)", "setting": "[8]; with or without GlcNAc treatment", "value": "strictly confined in neuronal cells"}]}]}
